Patent US20200246316A1, “METHODS OF TREATING POST-SURGICAL PAIN WITH A THIAZOLINE ANTI-HYPERALGESIC AGENT” (CERSCI THERAPEUTICS, INC., priority 2019, published 2020)
Entries after “also recorded” stand apart in the source; their conditions may differ. Where a name gives a salt, the structure may show the parent alone. Read-outs that look alike come from different tables or passages of the source.

Legend:
[1] = Dog 28-day repeat dose PO study; format: in vivo
Protocol: Beagle dogs (4/sex/group plus 2/sex/group for control and high dose animals for recovery) were administered daily doses of 0, 100, 250 or 400 mg/kg/day of Compound 1 in 0.5% HPMC. […] Dogs in Group 1 (Vehicle Control) were bled once at approximately 2-4 hours post-dose on those days.

[2] = Dog single dose study, IV 10 mg/kg and oral 10 and 100 mg/kg; format: in vivo; conditions: for peak plasma concentration: fasted
Protocol: In another study, Compound 1 was administered IV as a single dose to fasted beagle dogs at 10 mg/kg and orally at 10 and 100 mg/kg. Compound 1 was rapidly and well absorbed orally, within 1 hr, reaching peak plasma concentrations of 15 and 108 μg/mL at 10 and 100 mg/kg doses, respectively. The compound distributed readily in tissues with a moderate steady-state volume of distribution (0.3 L/kg).

[3] = test system: established incision-induced mechanical hyperalgesia; experiment: Brennan incisional pain model, treatment paradigm; format: in vivo, rat
Description: Two incisional pain models were used to assess Compound 1 effects on hyperalgesia. The first model is referred to as the Brennan model in which, under anesthesia, a 1 cm longitudinal incision to the skin and underlying fascia of a rat hindpaw is made. The second is a variation but is a more invasive procedure in which the skin and muscle are spread apart using forceps which creates a longer-lasting hypersensitivity.
Using the Brennan protocol and a treatment paradigm in rat, Compound 1 (10 and 30 mg/kg PO), morphine (3 mg/kg SC) or vehicle were administered daily at 24 h post-incision, and again at 48 and 72 h post-incision. Mechanical thresholds were obtained at 1 h and 2 h post-dose in all cohorts on all days.

[4] = Stability in plasma from a variety of species; format: in vitro ADME
Description: (§1) Further metabolism work in additional species will be undertaken.

[5] = Metabolic stability in hepatocytes; format: in vitro ADME
Description: as §1

[6] = Elimination from plasma after intravenous administration in rats; format: in vivo; conditions: rat
CYP2C19 = molecular target: T1, CYP2C19 (Homo sapiens, UniProt P33261); experiment: CYP inhibition in human liver microsomes; format: in vitro ADME
T1 construct: tissue BD Gentest; host or cells: human liver microsomes
Protocol: (§2) At varying concentrations, Compound 1 was incubated with human liver microsomes (HLM) in the presence of known substrates (see below) of specific CYP isoforms, in order to measure inhibition induced by Compound 1. Microsomes were incubated with known inhibitors (positive controls) of each CYP isoform, in the presence of substrate, in order to measure the metabolic activity of the microsomes.

CYP2D6 = molecular target: T2, CYP2D6 (Homo sapiens, UniProt P10635); experiment: CYP inhibition in human liver microsomes; format: in vitro ADME
T2 construct: tissue BD Gentest; host or cells: human liver microsomes
Protocol: as §2

CYP1A2 = molecular target: T3, CYP1A2 (Homo sapiens, UniProt P05177); experiment: CYP inhibition in human liver microsomes; format: in vitro ADME
T3 construct: tissue BD Gentest; host or cells: human liver microsomes
T3 sequence (P05177 1-516): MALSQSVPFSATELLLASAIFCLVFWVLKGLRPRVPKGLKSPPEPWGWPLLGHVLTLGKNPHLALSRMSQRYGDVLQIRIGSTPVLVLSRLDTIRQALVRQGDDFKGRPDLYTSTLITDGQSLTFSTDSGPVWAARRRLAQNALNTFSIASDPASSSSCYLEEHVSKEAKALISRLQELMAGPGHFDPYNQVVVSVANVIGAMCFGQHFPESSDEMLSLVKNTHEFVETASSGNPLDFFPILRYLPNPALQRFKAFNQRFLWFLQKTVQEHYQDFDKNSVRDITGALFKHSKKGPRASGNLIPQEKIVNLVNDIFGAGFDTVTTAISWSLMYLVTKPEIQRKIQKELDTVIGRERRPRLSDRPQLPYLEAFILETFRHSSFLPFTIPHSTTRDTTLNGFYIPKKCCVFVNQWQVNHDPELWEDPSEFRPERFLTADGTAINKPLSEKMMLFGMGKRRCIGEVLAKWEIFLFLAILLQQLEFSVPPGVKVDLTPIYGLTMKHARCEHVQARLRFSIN
Protocol: as §2

CYP3A4 = molecular target: T4, CYP3A4 (Homo sapiens, UniProt P08684); experiment: CYP inhibition in human liver microsomes; format: in vitro ADME
T4 construct: tissue BD Gentest; host or cells: human liver microsomes
Protocol: as §2

CYP2C9 = molecular target: T5, CYP2C9 (Homo sapiens, UniProt P11712); experiment: CYP inhibition in human liver microsomes; format: in vitro ADME
T5 construct: tissue BD Gentest; host or cells: human liver microsomes
Protocol: as §2

[7] = Rat single dose metabolism/excretion study (urine and feces)

T2 sequence (P10635 whole entry): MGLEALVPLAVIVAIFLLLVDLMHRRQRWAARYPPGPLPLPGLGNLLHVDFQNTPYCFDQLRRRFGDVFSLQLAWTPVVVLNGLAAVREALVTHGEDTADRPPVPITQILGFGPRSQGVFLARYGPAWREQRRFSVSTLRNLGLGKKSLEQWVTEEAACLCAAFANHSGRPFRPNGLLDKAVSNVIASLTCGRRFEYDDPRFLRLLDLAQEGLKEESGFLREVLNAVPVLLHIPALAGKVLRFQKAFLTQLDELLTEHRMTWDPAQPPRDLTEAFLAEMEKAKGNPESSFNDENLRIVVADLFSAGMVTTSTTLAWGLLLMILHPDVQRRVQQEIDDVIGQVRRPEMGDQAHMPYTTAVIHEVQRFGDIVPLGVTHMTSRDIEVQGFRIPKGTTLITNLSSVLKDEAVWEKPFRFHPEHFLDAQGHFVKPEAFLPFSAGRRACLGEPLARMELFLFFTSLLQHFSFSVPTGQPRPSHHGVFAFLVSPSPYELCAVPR
T5 sequence (P11712 whole entry): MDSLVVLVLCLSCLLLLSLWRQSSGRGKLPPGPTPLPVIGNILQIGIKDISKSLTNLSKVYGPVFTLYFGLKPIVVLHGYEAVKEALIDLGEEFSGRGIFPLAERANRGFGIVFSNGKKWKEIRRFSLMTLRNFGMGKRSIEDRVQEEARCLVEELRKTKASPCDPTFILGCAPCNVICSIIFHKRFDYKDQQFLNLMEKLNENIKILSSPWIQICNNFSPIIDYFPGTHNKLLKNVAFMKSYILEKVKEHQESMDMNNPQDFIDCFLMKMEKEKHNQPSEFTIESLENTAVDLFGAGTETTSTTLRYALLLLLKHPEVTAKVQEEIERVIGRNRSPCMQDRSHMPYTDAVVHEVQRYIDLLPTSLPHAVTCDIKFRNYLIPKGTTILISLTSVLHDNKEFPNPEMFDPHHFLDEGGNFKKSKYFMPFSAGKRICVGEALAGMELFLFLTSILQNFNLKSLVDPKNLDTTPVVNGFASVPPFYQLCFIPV
T4 sequence (P08684 whole entry): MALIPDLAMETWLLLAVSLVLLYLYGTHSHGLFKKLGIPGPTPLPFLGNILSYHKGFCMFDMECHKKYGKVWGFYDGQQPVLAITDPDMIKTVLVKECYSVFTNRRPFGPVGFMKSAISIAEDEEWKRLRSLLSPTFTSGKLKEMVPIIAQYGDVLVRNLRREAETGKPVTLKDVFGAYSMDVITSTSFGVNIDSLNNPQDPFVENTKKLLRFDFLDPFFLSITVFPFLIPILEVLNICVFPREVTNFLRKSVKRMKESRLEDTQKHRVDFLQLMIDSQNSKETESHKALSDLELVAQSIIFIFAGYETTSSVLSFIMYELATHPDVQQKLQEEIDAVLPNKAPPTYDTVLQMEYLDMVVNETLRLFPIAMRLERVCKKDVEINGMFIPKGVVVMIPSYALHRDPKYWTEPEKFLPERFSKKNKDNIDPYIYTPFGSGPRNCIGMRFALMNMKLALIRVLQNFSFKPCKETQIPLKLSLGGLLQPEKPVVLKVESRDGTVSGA
T1 sequence (P33261 whole entry): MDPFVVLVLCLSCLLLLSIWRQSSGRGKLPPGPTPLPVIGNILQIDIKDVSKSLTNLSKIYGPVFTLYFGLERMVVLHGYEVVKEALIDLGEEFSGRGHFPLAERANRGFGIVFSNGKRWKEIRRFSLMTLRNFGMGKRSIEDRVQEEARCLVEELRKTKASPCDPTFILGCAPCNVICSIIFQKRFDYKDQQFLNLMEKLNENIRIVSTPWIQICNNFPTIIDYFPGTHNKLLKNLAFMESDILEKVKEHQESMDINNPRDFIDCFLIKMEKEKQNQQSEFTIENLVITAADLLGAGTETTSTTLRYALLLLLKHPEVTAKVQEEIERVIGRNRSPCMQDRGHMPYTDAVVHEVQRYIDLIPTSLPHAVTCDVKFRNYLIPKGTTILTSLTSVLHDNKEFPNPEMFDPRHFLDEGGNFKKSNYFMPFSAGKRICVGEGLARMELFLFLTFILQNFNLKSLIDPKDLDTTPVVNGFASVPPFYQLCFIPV

CC1(C)SC(Nc2ccccc2O)=N[C@@H]1C(=O)O [Compound 1, (R)-2-(2-hydroxyphenylamino)-5,5-dimethyl-4,5-dihydrothiazole-4-carboxylic acid mono-hydrochloride]
Cmax ([1]; 28-day pivotal dog study, at some doses): over 100 μg/mL
Tmax ([1]; 28-day study, dog): ≤ 1 h
half-life ([1]; both sexes, beagle, dog, in vivo, po, t1/2): ~3.5 h
Tmax ([1]; both sexes, beagle, dog, in vivo, po, 100 and 250 mg/kg treatment groups, read-out: median tmax): 1 h
t1/2 ([1]; both, beagle, dog, in vivo, po): 3.5 h
Cmax ([1]; female, beagle, dog, in vivo, po, 100 mg/kg, Day 1, 100 mg/kg PO, F, read-out: Cmax): 69.3 µg/mL
Cmax ([1]; female, beagle, dog, in vivo, po, 100 mg/kg, Day 15, 100 mg/kg PO, F, read-out: Cmax): 53 µg/mL
Cmax ([1]; female, beagle, dog, in vivo, po, 100 mg/kg, Day 28, 100 mg/kg PO, F, read-out: Cmax): 60.8 µg/mL
Cmax ([1]; female, beagle, dog, in vivo, po, 250 mg/kg, Day 1, 250 mg/kg PO, F, read-out: Cmax): 101 µg/mL
Cmax ([1]; female, beagle, dog, in vivo, po, 250 mg/kg, Day 15, 250 mg/kg PO, F, read-out: Cmax): 94.6 µg/mL
Cmax ([1]; female, beagle, dog, in vivo, po, 250 mg/kg, Day 28, 250 mg/kg PO, F, read-out: Cmax): 89.5 µg/mL
Cmax ([1]; female, beagle, dog, in vivo, po, 400 mg/kg, Day 1, 400 mg/kg PO, F, read-out: Cmax): 129 µg/mL
Cmax ([1]; female, beagle, dog, in vivo, po, 400 mg/kg, Day 15, 400 mg/kg PO, F, read-out: Cmax): 123 µg/mL
Cmax ([1]; female, beagle, dog, in vivo, po, 400 mg/kg, Day 28, 400 mg/kg PO, F, read-out: Cmax): 131 µg/mL
Cmax ([1]; male, beagle, dog, in vivo, po, 100 mg/kg, Day 1, 100 mg/kg PO, M, read-out: Cmax): 49.9 µg/mL
Cmax ([1]; male, beagle, dog, in vivo, po, 100 mg/kg, Day 15, 100 mg/kg PO, M, read-out: Cmax): 50.4 µg/mL
Cmax ([1]; male, beagle, dog, in vivo, po, 100 mg/kg, Day 28, 100 mg/kg PO, M, read-out: Cmax): 45 µg/mL
Cmax ([1]; male, beagle, dog, in vivo, po, 250 mg/kg, Day 1, 250 mg/kg PO, M, read-out: Cmax): 104 µg/mL
Cmax ([1]; male, beagle, dog, in vivo, po, 250 mg/kg, Day 15, 250 mg/kg PO, M, read-out: Cmax): 88 µg/mL
Cmax ([1]; male, beagle, dog, in vivo, po, 250 mg/kg, Day 28, 250 mg/kg PO, M, read-out: Cmax): 105 µg/mL
Cmax ([1]; male, beagle, dog, in vivo, po, 400 mg/kg, Day 1, 400 mg/kg PO, M, read-out: Cmax): 128 µg/mL
Cmax ([1]; male, beagle, dog, in vivo, po, 400 mg/kg, Day 15, 400 mg/kg PO, M, read-out: Cmax): 112 µg/mL
Cmax ([1]; male, beagle, dog, in vivo, po, 400 mg/kg, Day 28, 400 mg/kg PO, M, read-out: Cmax): 125 µg/mL
peak plasma concentration ([2]; 10 mg/kg oral): 15 µg/mL
peak plasma concentration ([2]; 100 mg/kg oral): 108 µg/mL
bioavailability ([2]; beagle, dog, plasma, po, both 10 and 100 mg/kg doses): 75%
time to peak plasma concentration ([2]; oral, fasted beagle dogs): ≤ 1 h
effect on established mechanical hyperalgesia (overall) ([3]; Compound 1 10 and 30 mg/kg PO daily, morphine 3 mg/kg SC, FIG. 12, mono-hydrochloride): prevented/reversed hyperalgesia completely; also recorded: reversed mechanical hyperalgesia
reversal of hyperalgesia ([3]; Day 1, 2-h time point, low-dose (10 mg/kg PO)): partial reversal
mechanical threshold ([3]; Day 1, 1 h post-dose, high-dose (30 mg/kg PO)): 26 g
mechanical threshold ([3]; Day 1, 2 h post-dose, high-dose (30 mg/kg PO)): 27 g
reversal of hyperalgesia ([3]; Day 2, 1 h and 2 h post-dosing, both 10 and 30 mg/kg PO cohorts): full reversal of hyperalgesia
mechanical threshold ([3]; Day 2 prior to dosing, high-dose (30 mg/kg PO)): 29 g
mechanical threshold ([3]; Day 2 prior to dosing, low-dose (10 mg/kg PO)): 26 g
hyperalgesia ([3]; Day 3 prior to dosing): did not show hyperalgesia
stability in plasma [4]: stable
stability in hepatocytes ([5]; dog, mono-hydrochloride): stable; also recorded: showed metabolic stability
stability in hepatocytes ([5]; human, mono-hydrochloride): stable; also recorded: showed metabolic stability
stability in hepatocytes ([5]; monkey): showed metabolic stability
stability in hepatocytes ([5]; rat, mono-hydrochloride): stable; also recorded: showed metabolic stability
half-life [6]: ~3 h
CYP inhibition (CYP2C19; CYP2C19, up to 100 μM): did not inhibit
IC50 (CYP2C19; CYP2C19, read-out: IC50): > 100 µM
IC50 (CYP2C19; human liver microsomes, known substrate of the CYP isoform, read-out: IC50 (μM) CYP 2C19): > 100 µM
CYP inhibition (CYP2D6; CYP2D6, up to 100 μM): did not inhibit
IC50 (CYP2D6; CYP2D6, read-out: IC50): > 100 µM
IC50 (CYP2D6; human liver microsomes, known substrate of the CYP isoform, read-out: IC50 (μM) CYP 2D6): > 100 µM
CYP inhibition (CYP1A2; CYP1A2, up to 100 μM): did not inhibit
IC50 (CYP1A2; CYP1A2, read-out: IC50): > 100 µM
IC50 (CYP1A2; human liver microsomes, known substrate of the CYP isoform, read-out: IC50 (μM) CYP 1A2): > 100 µM
CYP inhibition (CYP3A4; CYP3A4, up to 100 μM): did not inhibit
IC50 (CYP3A4; CYP3A4, read-out: IC50): > 100 µM
IC50 (CYP3A4; human liver microsomes, known substrate of the CYP isoform, read-out: IC50 (μM) CYP 3A4): > 100 µM
CYP inhibition (CYP2C9; CYP2C9, up to 100 μM): did not inhibit
IC50 (CYP2C9; CYP2C9, read-out: IC50): > 100 µM
IC50 (CYP2C9; human liver microsomes, known substrate of the CYP isoform, read-out: IC50 (μM) CYP 2C9): > 100 µM
administered compound recovered unchanged [7]: 5-15%
